Measurements published in patent publication US20120189544A1, “GASTROINTESTINAL DISEASE OR DISORDER IMAGING AND TREATMENT” (SALK INSTITUTE FOR BIOLOGICAL STUDIES, priority 2009, published 2012).

Columns and labels:
[1] = tested on: pre-existing GI polyps in Lkb1^+/− mice
Protocol: Mouse Colony Maintenance, Treatment Regimen and Polyp Measurement. Lkb1^+/+ and Lkb1^+/− mice, maintained on an FVB/N genetic background, were monitored for the development of gastrointestinal polyps. Mice with clinical signs of disease were euthanized and necropsied. The groups were vehicle treated or RAPA treated mice. […] Polyps were scored and total polyp burden was measured).
After two months of treatment, polyp size and number in each mouse were quantitated.

[2] = tested on: PTEN-deficient glioblastomas and metastatic renal cell carcinomas; conditions: patients with PTEN-deficient glioblastomas and metastatic renal cell carcinomas; cited from earlier work

CO[C@H]1C[C@@H]2CC[C@@H](C)[C@@](O)(O2)C(=O)C(=O)N2CCCC[C@H]2C(=O)O[C@H]([C@H](C)C[C@@H]2CC[C@@H](O)[C@H](OC)C2)CC(=O)[C@H](C)/C=C(\C)[C@@H](O)[C@@H](OC)C(=O)[C@H](C)C[C@H](C)/C=C/C=C/C=C/1C [rapamycin]
reduction in the overall mass of polyps ([1]; Lkb1+/− mice treated vs untreated with rapamycin, two months): 80%
mean polyp burden (total polyp burden) ([1]; Lkb1+/− mice, 10 mg/kg rapamycin i.p., two months, n=10, VEH 9.6±5.5, p=0.00026): 2.0±1.2
mean polyp size ([1]; Lkb1+/− mice, n=10, VEH 4.4±0.8, p<0.0001): 1.2±0.9
mean polyp number ([1]; Lkb1+/− mice, visible polyps between 1 and 5 mm scored, n=10, VEH 5.3±1.8, p=0.00022): 2.8±1.4

CO[C@H]1C[C@@H]2CC[C@@H](C)[C@@](O)(O2)C(=O)C(=O)N2CCCC[C@H]2C(=O)O[C@H]([C@H](C)C[C@@H]2CC[C@@H](OC(=O)C(C)(CO)CO)[C@H](OC)C2)CC(=O)[C@H](C)/C=C(\C)[C@@H](O)[C@@H](OC)C(=O)[C@H](C)C[C@H](C)/C=C/C=C/C=C/1C [Temsirolimus, temsirolimus]
clinical outcome [2]: palliative success
